The record followed here is patent US20230107216A1, “PANTETHEINE DERIVATIVES AND USES THEREOF” (Comet Therapeutics, Inc., priority 2018, published 2023).

Where two headings read alike, the source gives them in different places.

Assay [1] concerns Propionic Acidemia (PA) primary fibroblasts Tsi 6337. The experiment in a line: Mitochondrial respiration, XFe96 Extracellular Flux Analyzer (OCR/ECAR), PA fibroblasts Tsi 6337. The assay is classed as cell-based. Conditions: Homo sapiens, Fibroblast, read-out: Increase in Maximal Respiratory Capacity AUC. As for the experimental part:
The effect of the compounds of the present disclosure on mitochondrial respiration was measured with a XFe96 Extracellular Flux Analyzer (Seahorse Bioscience, Agilent Technologies) and Oxygen consumption Rate (OCR) and Extracellular acidification rate (ECAR) determined.
Cell culture and treatments. Primary adherent fibroblasts were cultured in minimum essential medium (MEM) (Gibco, 25030081) supplemented with 2 mM L-Glutamine (Gibco, 25030081), 15% fetal bovine serum (FBS) (Gibco, 26400044) and 1% penicillin/streptomycin (Gibco, 5140122) at 37° C. and 5% CO2. Cells were collected for either passaging or experiment at ˜70-80% confluence. Cells were obtained by trypsinization and seeded at 20000 cells/well in cell culture microplates (Seahorse Bioscience, 101085-004) and allowed to adhere for 16 hours in culture media.
By profiling different primary cells and/or optimizing their culture media or environmental components one can select cell lines and/or conditions that are appropriate for the biological or disease model. In the present example, 24 hours prior to OCR and ECAR profiling, media was changed to Dulbecco's Modified Eagle Medium (DMEM, Agilent Seahorse 103575-100) with the appropriate supplements for the different primary cells (10 mM glucose, 2 mM L-glutamine, 1 mM pyruvate, 10% FBS; 1 mM glucose, 2 mM L-glutamine, 1 mM pyruvate, 10% FBS; 10 mM glucose, 10% FBS; 5 mM glucose 10% FBS; 1 mM glucose 10% FBS). Cells used in this example were: Propionic Acidemia (PA) (GM00371, GM03590 Coriell Institute for Medical Research, Tsi 6337, Tsi 4626, Tsi 3618 Trans-Hit Bio), Methylmalonic Acidemia (MMA) (GM01673, Coriell Institute for Medical Research, Tsi 5224 Trans-Hit Bio), Branched chain ketoacid dehydrogenase kinase (BCKDK) (GM00612, GM00649 Coriell Institute for Medical Research), Subnormal activation of pyruvate dehydrogenase complex (PDH) (GM01503 Coriell Institute for Medical Research), Very long-chain acyl-CoA dehydrogenase (VLCAD) (GM17475), Leigh Syndrome (LS) (GM03672, GM13411 Coriell Institute for Medical Research), Pyruvate Carboxylase Deficiency (PC) (GM00444 Coriell Institute for Medical Research), Glutaric Acidemia-I (GA) (GM10653), Friedreich's Ataxia (FXN) (GM04078 Coriell Institute for Medical Research, Huntington's disease (HD) (GM21756 Coriell Institute for Medical Research), Ornithine Transcarbamylase Deficiency (OTC) (GM12756 Coriell Institute for Medical Research), Kearns-Sayre Syndrome (KSS) (GM06225 Coriell Institute for Medical Research).
One hour before the assay, the cells were washed with freshly prepared unbuffered serum free-Seahorse XF Assay medium (Seahorse Bioscience, North America, USA, 103575-100) with the same supplements as for the previous 24 hour incubation.
After baseline measurements of OCR, cells were challenged with compounds of the present disclosure at different concentrations (10 to 50 μM) or vehicle (DMSO, 0.1%) and a post-compound baseline was recorded. OCR was measured after sequentially adding to each well 1 μg/ml oligomycin (inhibitor of ATP synthase Sigma-Aldrich, 753531), then maximal OCR was determined with carbonyl cyanide 4-(trifluoromethoxy) phenylhydrazone (FCCP, Sigma-Aldrich, C2920), (uncoupler of oxidative phosphorylation) and 0.5 μM of rotenone (Sigma-Aldrich, R8875) plus antimycin A (Sigma-Aldrich, A8674) (inhibitors of mitochondrial complex I and III) for determination of rotenone-antimycin insensitive respiration together with Hoechst for nuclear staining in situ when normalized to cell counts. After the analysis and nuclear staining, the XFp microplate was transferred to the Cytation 5, and the nuclear images were captured, the individual nuclei were identified and counted by BioTek Gen5 software. Data were expressed as pmol of O2 per minute and normalized by nuclear staining and baselined to pre-compound addition.
Assay conditions were as stated below.
Assay specifics on assay conditions are indicated below when readouts were normalized to cell counts. […]

For assay [2], the system named is HepG2 cells. The assay is described as follows: Mitochondrial membrane potential (MITO-ID MP detection Kit). The assay is classed as cell-based. Conditions: Homo sapiens, 168 h, 7 days, read-out: % increase in Mitochondrial Membrane Potential. As for the experimental part:
HepG2 cells (ATCC, HB-8065) were cultured (5% CO2 at 37° C.) and plated in Poly-D-Lysine 384-Well plate (Corning, 356663) at a density of 160000 cells/mL in 50 μL/well. Culture and assay media consisted of DMEM (Gibco, 11995-065) supplemented with 1% Penicillin-Streptomycin and 10% FBS (Hyclone, SV30087.03).
MITO-ID® MP detection Kit (ENZ-51018) was used and manufacturer instructions followed. Cells were allowed to settle for 30 min at room temperature and further incubated overnight (37° C. and 5% CO2) for adherence. Next day, test compounds (50-10 μM) and vehicle DMSO (0.2%) were added at the recommended volumes to the 384-well plate for 7 days without media change using a Tecan compound dispenser. All the solutions and wash buffers were prepared and dispensed according to manufacturer's volumes for a 384-well plate format.

Assay [3] deals with primary culture of rat embryo mesencephalic cells (microglia, astrocytes and neurons) exposed to LPS. The experiment in a line: Neuroprotective effect on damage induced by LPS on culture of mesencephalic neurons (NO, TNF-α, IL-1β, TH positive neurons). The assay is classed as cell-based. The settings on record: Rattus norvegicus, Neuron, 120 h, 50 uM, after 5 days of LPS exposure; list at threshold 15%; read-out: % reversion of TH positive neurons. As for the experimental part:
Drug preparation. […] The stock solutions will be prepared 1000× the concentration in 100% DMSO. The final concentration of the vehicle (DMSO) is set at 0.1%.
Test animals. Pregnant Wistar rats (Janvier; France) are used for the study. They are group-housed and maintained in a room with controlled temperature (21-22° C.) and a reversed light-dark cycle (12h/12h; lights on: 17:30-05:30; lights off: 05:30-17:30) with food and water available ad libitum.
The protocol is performed in 3 independent cultures. For each culture, each condition is performed in sextuplicate.
Female rat of 15 days gestation is killed by cervical dislocation. Fetuses are removed from the uterus and their brains are harvested and placed in ice-cold medium (Leibovitz's L15 medium, Gibco). Only ventral mesencephalic flexure is used for the cell preparations. The midbrain is dissociated by trypsinization. The reaction is stopped, and the suspension is triturated and centrifuged. The pellet of dissociated cells is resuspended in culture medium consisted of DMEM-F12 (Gibco), containing 10% FBS (ATCC), 10% Horse serum (Gibco) and 2 mM L-glutamine (Gibco). Viable cells are counted and seeded on 96-well plates, precoated with poly-L-lysine. Cells are maintained in a humidified incubator at 37° C. in 5% CO2-95% air atmosphere. Half of the medium is changed on day 2 and day 5.
Treatment. On day 7, culture media are removed and replaced by new medium consisting of DMEM-F12 (Gibco) supplemented with 2% FBS (ATCC), 2% Horse serum (Gibco) and 2 mM L-glutamine (Gibco) and containing vehicle or test substances. After 1-hour exposure, LPS at 10 ng/ml is added and exposure further continued for 24 hours or 5 days period.
Inflammatory response measurement and neuronal death evaluation. NO production is measured in the media 24h and 5 days after LPS exposure using the Griess reagent kit (Molecular Probes). The Griess reagent Assay is a colorimetric reaction assay which measures the conversion of a sulfanilic salt into an azo dye product by nitrite. Visible wavelength absorbance data is collected using a 96-well plate reader at 570 nm (Multiskan EX, Thermo Fisher, France). IL-1β and TNF-α release are measured in the media 24h after LPS exposure using the ELISA development kit (PeproTech). The ELISA plate, previously coated with anti-IL-1β or anti-TNF-αantibody at 1 μg/ml, is incubated 1h with PBS containing 1% of BSA (bovine serum albumin). After washing four times with PBS containing 0.05% of Tween-20, the plate is successively incubated 2h with supernatant, 2h with biotinylated antibody at 0.5 μg/ml in PBS containing 0.1% of BSA and 0.05% of Tween-20, 45 min with Avidin-HRP conjugated at 1/2000 and 30 min with color ABTS substrate (Sigma). Visible wavelength absorbance data is collected using a 96-well plate reader at 405 nm with wavelength correction set at 650 nm (Multiskan EX, Thermo Fisher, France).
Immunodetection of tyrosine hydroxylase positive neurons. On day 12 (5 days after LPS exposure), cultures are fixed 30 min at 4° C. with paraformaldehyde in PBS (4%, Sigma). Then, cells are successively permeabilized with 0.1% Triton X100 for 30 min, saturated with PBS containing 3% of BSA (bovine serum albumin) and are incubated 2h with anti-tyrosine hydroxylase antibody (Sigma, 1:10000; clone TH-2) at 1/10 000 in PBS containing 0.5% of BSA. Cells are washed three times with PBS containing 0.5% of BSA, and they are incubated 1h with goat anti mouse antibody coupled with AF488 (Invitrogen A11001) diluted at 1/1000 in PBS containing 0.5% of BSA. Finally, nuclei are stained with DAPI at 1/1000 in PBS containing 0.5% of BSA. After rinsing with PBS, the plate is visualized and examined with Cell Insight HCS (Thermo Scientific) to determine the number of tyrosine hydroxylase positive cells per well.
Statistical Analysis. The drug-induced effect on NO and cytokines is calculated by setting the response of the LPS-stimulated control as 100%. […]

The test system of assay [4] is monocyte-derived M1 macrophages. The experiment in a line: M1 differentiation assay (macrophage TNFα, IL6, IL10 ELISA, FACS). The assay is classed as cell-based, human. The settings on record: Homo sapiens, Macrophage. The procedure, abridged: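 CD14+ human blood monocytes (100,000) differentiated 6 days with 10 ng/ml GM-CSF plus compound at 10 or 50 μM, refreshed days 2 and 4. Matured 24 h with GM-CSF, IFNγ, LPS plus compound. Supernatant TNFα, IL6, IL10 by ELISA; FACS M1 phenotype CD86+CD68+CD163−.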

In assay [5] the test system is Methylmalonic Acidemia (MMA) primary fibroblasts Tsi 5224. The assay is described as follows: Mitochondrial respiration, XFe96 Extracellular Flux Analyzer (OCR/ECAR), MMA fibroblasts Tsi 5224. The assay is classed as cell-based. The settings on record: Homo sapiens, Fibroblast, MMA Tsi 5224, assay condition C (10 mM glucose, 10% FBS), read-out: Increase in Spare Capacity AUC. The procedure, abridged:
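Primary fibroblasts (20000 cells/well) were held 24 h in supplemented DMEM before Seahorse OCR/ECAR profiling. Compounds at 10 to 50 μM or 0.1% DMSO were injected after baseline, then oligomycin 1 μg/ml, FCCP, and rotenone/antimycin A 0.5 μM. Values were normalized to Hoechst nuclear counts, baselined to pre-compound, and expressed relative to vehicle.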

Assay [6] has as its system primary fibroblasts (healthy controls and PA, MMA, BCKDK, PDH, VLCAD, LS, PC, GA, VLCFA, KSS, FXN, HD). The assay is described as follows: Measurement of ROS (H2DCFDA) in primary fibroblasts. The assay is classed as cell-based, human. Conditions: Homo sapiens, procedure Example 812. The procedure, abridged:
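Patient and healthy-control primary fibroblasts switched to supplemented DMEM 24 h before assay, then treated with compound (10 μM) plus H2DCFDA (22 μM) for 2 h (PA, MMA lines) or 24 h (other lines). Kinetic fluorescence at 492/527 nm over 60 min; only live cells analysed.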

Setting [7] is: PA Tsi 6337, assay condition A (10 mM glucose, 2 mM L-glutamine, 1 mM pyruvate, 10% FBS).

Consider `COC(=O)CCC(=O)OCC(C)(C)[C@@H](O)C(=O)NCCC(=O)NCCSC(=O)CCC(=O)OC` [Compound 1230], for which the activation at 10 µM in assay [1] (setting [7]) was not below 10%; in assay [1] (PA Tsi 6337, assay condition D (1 mM glucose, 10% FBS)), not below 10%; in assay [2] it was more than 30%.
Turning to `C[C@@H](CC(=O)SCCNC(=O)CCNC(=O)[C@H](O)C(C)(C)CO)OC(=O)CCC(=O)O` [Compound 1247, 4-{[(2S)-4-[(2-{3-[(2R)-2,4-dihydroxy-3,3-dimethylbutanamido]propanamido}ethyl)sulfanyl]-4-oxobutan-2-yl]oxy}-4-oxobutanoic acid], in assay [1] (setting [7]), the activation at 10 µM is not below 10%. Moreover, the activation at 50 µM in assay [2] (50 uM) was more than 20%.
With `CC(C)(CO)[C@@H](O)C(=O)NCCC(=O)NCCS` [Preparatory Ex 5], the inhibition at 50 µM in assay [3] was not below 15%.
With `CC(C)(CO)[C@@H](O)C(=O)NCCC(=O)NCCSC(=O)C1CCC(=O)O1` (stereo partly drawn) [Compound 1229, S-2-{3-[(R)-2,4-dihydroxy-3,3-dimethylbutyrylamino]propionylamino} ethyl 5-oxo-3,4-dihydro-2H-furan-2-carbothioate], the activation at 10 µM was not below 10% in assay [1] (setting [7]) and more than 20% in assay [2]. Besides, in assay [4] (10 uM, read-out: % decrease in Macrophage IL-6 Secretion), the inhibition at 10 µM was not below 30%. Further, the activation at 50 µM in assay [4] (50 uM, read-out: % Increase in IL-10 Secretion) was not below 30%.
For the compound `CC(C)(COC(=O)CCC(=O)O)[C@@H](OC(=O)CCC(=O)O)C(=O)NCCC(=O)NCCSC(=O)CCC(=O)O` [Compound 1233], the activation at 10 µM in assay [5] was not below 50%; in assay [1] (setting [7]), not below 10%. Further, the inhibition at 10 µM in assay [6] (Fibroblast, BCKD GM00612, Assay Condition A, read-out: Decreased ROS by at least 10%) is not below 10%; in assay [6] (Fibroblast, VLCFA GM13262, Assay Condition C, read-out: Decreased ROS by at least 30%), not below 30%; in assay [6] (FXN GM04078, Assay Condition C, read-out: Decreased ROS by at least 10%), not below 10%; in assay [6] (FXN GM04078, Assay Condition C, read-out: Decreased ROS by at least 30%) it was not below 30%.
